Measurements as given in patent publication US8846704B2, “Thiopyrimidine-based compounds and uses thereof” (YM Biosciences Austraila Pty Ltd, priority 2007, dated 2014).

What was measured:
[1] = molecular target: T1, human JAK2 (Homo sapiens, UniProt O60674); test: Alphascreen tyrosine kinase enzyme assay, JAK2 kinase domain; type: biochemical; details: read-out: JAK2 IC50_nM
T1 construct: The kinase domain of human JAK2 was amplified; GST (N); made in house; host or cells: Sf9 insect cells (baculovirus)
Outline: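 JAK2 kinase domain expressed in baculovirus/Sf9 and glutathione-affinity purified. Compounds (final […]) pre-incubated 20 min with enzyme in 10 mM HEPES pH 7.5, MgCl2, NaCl, vanadate, 0.1% Tween 20.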

[2] = test system: BaF3 wild-type cells; test: Cellular screening, BaF3 wild-type cells, Alamar Blue; type: cell-based; details: Mus musculus, 40 hr, read-out: BAF3wt IC50_nM
Outline: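 Cells were cultured in DMEM with 10% FCS and 10% WEHI 3B conditioned medium, and suspensions were prepared at 1.1× final (50,000–200,000 cells/mL). Compounds from 20 μM dilution plates were added at 10× final and incubated for 40 hr at 37° C, 5% CO2. Alamar Blue was then added for 4–6 hours and read at 544 nm.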

[3] = molecular target: T2, human JAK3 (Homo sapiens, UniProt P52333); test: Alphascreen tyrosine kinase enzyme assay, JAK3 kinase domain; type: biochemical; details: read-out: JAK3 IC50_nM
T2 construct: The kinase domain of human JAK3 was amplified; GST (N); made in house; host or cells: Sf9 insect cells (baculovirus)
Outline: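 GST-affinity-purified human JAK3 kinase domain (baculovirus/Sf9) was pre-incubated 20 min with compound ([…]) in HEPES pH 7.5 buffer with MgCl2, vanadate and Tween 20. Biotinylated peptide substrate ([…]) and ATP were then added; phosphotyrosine was detected by AlphaScreen PY100 acceptor and streptavidin donor beads after 2–3 h.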

[4] = test system: CTLL2; test: Cellular screening, CTLL2 cells, Alamar Blue; type: cell-based; details: Mus musculus, CTLL-2, read-out: CTLL2 IC50_nM
Outline: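 CTLL2 cells in late log phase incubated with compound for 40 hr at 37° C, 5% CO2. Viability then read at 544 nm after a further 4-6 hours with Alamar Blue.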

[5] = molecular target: T3, BaF3 TELJAK2 cells (BafT_J2) (Homo sapiens, UniProt O60674); test: Cellular screening, BaF3 TEL:JAK2 cells, Alamar Blue; type: cell-based; details: 40 hr, read-out: BafT_J2 IC50_nM
T3 construct: fused on or other part: TEL (ETV6) N-terminal part, coding nucleotides 1-487, serves as the oligomerising partner; It is fused through a Sal I site to the JAK2 kinase domain and expressed from pTRE2 in BaF3 cells bearing pTET-off; P41212 (Transcription factor ETV6)
Outline: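 Tet-off BaF3 cells carrying a TEL (nt 1-487)–JAK2 kinase-domain fusion, grown factor-independently in DMEM with 10% Tet-approved FBS without WEHI 3B medium. Compounds were diluted to 20 μM in screening plates, and cells (50,000–200,000 cell/mL at 1.1×) were incubated 40 hr at 37 °C, 5% CO2. Alamar Blue was then added for 4-6 hours; read at 544 nm.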

T1 sequence (O60674 849-1124 limits assumed): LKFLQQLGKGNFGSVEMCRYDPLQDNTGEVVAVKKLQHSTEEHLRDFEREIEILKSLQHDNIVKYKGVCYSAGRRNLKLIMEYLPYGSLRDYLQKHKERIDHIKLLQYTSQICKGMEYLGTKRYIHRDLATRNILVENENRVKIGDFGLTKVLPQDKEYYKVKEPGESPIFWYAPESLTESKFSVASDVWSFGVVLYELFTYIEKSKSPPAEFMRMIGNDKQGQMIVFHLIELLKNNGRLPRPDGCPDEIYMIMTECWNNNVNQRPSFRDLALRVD
T2 sequence (P52333 822-1111 limits assumed): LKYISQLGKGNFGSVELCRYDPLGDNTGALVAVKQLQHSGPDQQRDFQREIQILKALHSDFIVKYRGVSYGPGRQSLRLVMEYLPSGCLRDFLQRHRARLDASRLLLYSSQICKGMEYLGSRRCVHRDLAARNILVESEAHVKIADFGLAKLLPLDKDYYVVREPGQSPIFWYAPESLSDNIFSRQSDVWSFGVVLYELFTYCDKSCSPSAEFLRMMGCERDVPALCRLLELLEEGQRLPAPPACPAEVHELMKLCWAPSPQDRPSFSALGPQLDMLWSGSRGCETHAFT
T3 sequence (O60674 whole entry, change not shown, the tested form may be a part): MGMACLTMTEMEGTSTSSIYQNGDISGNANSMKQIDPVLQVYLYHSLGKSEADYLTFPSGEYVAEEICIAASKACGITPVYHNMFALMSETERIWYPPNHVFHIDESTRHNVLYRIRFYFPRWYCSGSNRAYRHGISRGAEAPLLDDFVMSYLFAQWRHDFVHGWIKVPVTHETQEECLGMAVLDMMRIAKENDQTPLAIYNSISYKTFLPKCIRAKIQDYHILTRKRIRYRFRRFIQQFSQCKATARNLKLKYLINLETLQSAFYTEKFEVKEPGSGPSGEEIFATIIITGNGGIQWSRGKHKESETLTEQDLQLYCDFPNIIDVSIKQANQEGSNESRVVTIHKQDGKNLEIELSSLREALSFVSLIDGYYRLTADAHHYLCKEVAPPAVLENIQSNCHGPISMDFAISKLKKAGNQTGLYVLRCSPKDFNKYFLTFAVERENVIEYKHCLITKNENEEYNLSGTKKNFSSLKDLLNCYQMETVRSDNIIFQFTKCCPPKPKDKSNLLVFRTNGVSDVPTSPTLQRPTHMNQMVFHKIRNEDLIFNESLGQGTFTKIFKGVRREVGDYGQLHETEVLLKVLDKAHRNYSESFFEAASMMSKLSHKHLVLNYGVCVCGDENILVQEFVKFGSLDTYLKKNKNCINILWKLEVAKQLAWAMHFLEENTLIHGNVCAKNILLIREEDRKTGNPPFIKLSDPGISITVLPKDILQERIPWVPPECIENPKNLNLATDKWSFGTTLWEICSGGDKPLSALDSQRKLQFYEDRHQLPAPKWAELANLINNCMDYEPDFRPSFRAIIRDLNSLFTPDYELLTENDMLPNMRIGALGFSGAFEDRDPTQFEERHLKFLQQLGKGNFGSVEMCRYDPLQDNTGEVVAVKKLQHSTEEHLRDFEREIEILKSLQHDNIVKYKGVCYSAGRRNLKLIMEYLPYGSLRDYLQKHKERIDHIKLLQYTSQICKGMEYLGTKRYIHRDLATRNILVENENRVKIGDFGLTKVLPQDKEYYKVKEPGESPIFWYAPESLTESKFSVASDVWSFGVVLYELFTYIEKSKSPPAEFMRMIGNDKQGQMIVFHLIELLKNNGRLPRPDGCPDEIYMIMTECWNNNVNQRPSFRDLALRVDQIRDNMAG

SMILES	IC50 [1] [nM]	IC50 [2] [nM]	IC50 [3] [nM]	IC50 [4] [nM]	GI50 [5] [nM]
C=CC(=O)Nc1ccc(Sc2nc(Nc3ccc(N4CCOCC4)nc3)ncc2C)cc1 [Compound 254, N-(4-(5-methyl-2-(6-morpholinopyridin-3-ylao)pyrimidin-4-ylthio)phenyl)acrylamide]	> 1000	< 5000	< 100	< 1000	< 5000
Cc1cnc(Nc2ccc(N3CCOCC3)cc2)nc1Sc1ccc(N2C(=O)CSCC2=O)cc1 [Compound 231, 4-(4-(5-methyl-2-(4-morpholinophenylao)pyrimidin-4-ylthio)phenyl)thiomorpholine-3,5-dione]	> 1000	> 20000	< 100	< 20000	< 20000
C=CC(=O)Nc1ccc(Sc2nc(Nc3ccc(C)c(Br)c3)ncc2C)cc1 [Compound 242, N-(4-(2-(3-bromo-4-methylphenylao)-5-methylpyrimidin-4-ylthio)phenyl)acrylamide]	> 1000	> 20000	< 500	> 20000	> 20000
C=CC(=O)Nc1cccc(Nc2nccc(Sc3ccccn3)n2)c1 [Compound 2, N-(3-(4-(pyridin-2-ylthio)pyrimidin-2-ylamino)phenyl)acrylamide]	> 1000	< 5000	< 100	< 5000	< 5000
C=CC(=O)Nc1ccc(Sc2nc(Nc3ccc(N4CCC(O)C4)cc3)ncc2C)cc1 (stereo not drawn) [Compound 295, N-(4-(2-(4-(3-hydroxypyrrolidin-1-yl)phenylao)-5-methylpyrimidin-4-ylthio)phenyl)acrylamide]	> 1000	> 20000	< 100	< 1000	> 20000
C=CC(=O)Nc1ccc(Sc2ccnc(Nc3ccc(O)cc3)n2)cc1 [Compound 276, N-(4-(2-(4-hydroxyphenylao)pyrimidin-4-ylthio)phenyl)acrylamide]	> 1000	< 20000	< 100	< 1000	< 20000
Cc1cnc(Nc2ccc(O)cc2)nc1Sc1ccc(NC(=O)CCl)cc1 [Compound 193, 2-chloro-N-(4-(2-(4-hydroxyphenylao)-5-methylpyrimidin-4-ylthio)phenyl)acetamide]	> 1000	< 5000	< 100	< 1000	< 5000
C=CC(=O)N(C)c1ccc(Sc2nc(Nc3ccc(N4CCOCC4)cc3)ncc2Br)cc1 [Compound 261, N-(4-(5-bromo-2-(4-morpholinophenylao)pyrimidin-4-ylthio)phenyl)-N-methylacrylamide]	< 500	> 20000	< 100	< 1000	> 20000
C=CC(=O)N(C)c1ccc(Sc2nc(Nc3ccc(N4CCOCC4)cc3)ncc2C)cc1 [Compound 173, N-methyl-N-(4-(5-methyl-2-(4-morpholinophenylao)pyrimidin-4-ylthio)phenyl)acrylamide]	< 500	< 20000	< 100	< 1000	< 20000
C=CC(=O)Nc1ccc(Sc2nc(Nc3ccc(N4CCN(C)CC4)c(OC)c3)ncc2C)cc1 [Compound 249, N-(4-(2-(3-methoxy-4-(4-methylpiperazin-1-yl)phenylao)-5-methylpyrimidin-4-ylthio)phenyl)acrylamide]	> 1000	< 5000	< 100	< 1000	< 5000
C=CC(=O)Nc1ccc(Sc2nc(Nc3cccc(N4CCN(C)CC4)c3)ncc2C)cc1 [Compound 243, N-(4-(5-methyl-2-(3-(4-methylpiperazin-1-yl)phenylao)pyrimidin-4-ylthio)phenyl)acrylamide]	> 1000	< 5000	< 100	< 1000	< 5000
C=CC(=O)Nc1ccc(Sc2nc(Nc3cccc(N4CCOCC4)c3)ncc2F)cc1 [Compound 267, N-(4-(5-fluoro-2-(3-morpholinophenylao)pyrimidin-4-ylthio)phenyl)acrylamide]	> 1000	< 5000	< 100	< 1000	< 5000
C=CC(=O)Nc1ccc(Sc2ccnc(Nc3cccc(O)c3)n2)cc1 [Compound 277, N-(4-(2-(3-hydroxyphenylao)pyrimidin-4-ylthio)phenyl)acrylamide]	> 1000	> 20000	< 100	< 1000	< 5000
N#Cc1nnn(Cc2ccc(Sc3ccnc(Nc4ccc(N5CCOCC5)cc4)n3)cc2)n1 [Compound 156, 2-(4-(2-(4-morpholinophenylao)pyrimidin-4-ylthio)benzyl)-2H-tetrazole-5-carbonitrile]	> 1000	< 5000	< 100	< 5000	< 5000
C=CC(=O)Nc1ccc(Sc2nc(Nc3cccc(N4CCOCC4)c3)ncc2C)cc1 [Compound 237, N-(4-(5-methyl-2-(3-morpholinophenylao)pyrimidin-4-ylthio)phenyl)acrylamide]	> 1000	< 1000	< 100	< 1000	< 5000
C=CC(=O)NCc1cccc(Sc2ccnc(Nc3ccc(N4CCOCC4)cc3)n2)c1 [Compound 112, N-(3-(2-(4-morpholinophenylamino)pyrimidin-4-ylthio)benzyl)acrylamide]	> 1000	> 20000	< 100	< 20000	< 20000
C=CC(=O)Nc1ccc(Sc2nc(Nc3ccc(N4CCC(CO)CC4)cc3)ncc2Br)cc1 [Compound 253, N-(4-(5-bromo-2-(4-(4-(hydroxymethyl)piperidin-1-yl)phenylao)pyrimidin-4-ylthio)phenyl)acrylamide]	> 1000	> 20000	< 100	< 1000	< 20000
C=CC(=O)Nc1ccc(Sc2nc(Nc3ccc(OC)c(NS(C)(=O)=O)c3)ncc2C)cc1 [Compound 293, N-(4-(2-(4-methoxy-3-(methylsulfonamido)phenylao)-5-methylpyrimidin-4-ylthio)phenyl)acrylamide]	> 1000	< 5000	< 100	< 1000	< 5000
